Where “and” joins values, the source holds several entries; their conditions need not be identical. Equal entries are not always repeated.
Legend:
[1] = Ratio of cytotoxicities against T78-1 cell line to NTR transfectant; format: functional
SK-OV-3 [2] = experiment: In vitro cytotoxicity against SKOV-3 cells in the absence of co-factor; format: functional, cell-based; conditions: Homo sapiens
[3] = Oxygen dependence of cytotoxicity was assessed by clonogenic assay using stirred suspension cultures of AA8 cells after 4 hr under aerobic conditions; format: functional, Cricetulus griseus, CHO-AA8
SK-OV-3 [4] = experiment: In vitro cytotoxicity against SKOV-3 cells in the presence of 1 mM NADH co-factor; format: functional, cell-based; conditions: Homo sapiens
SK-OV-3 [5] = experiment: In vitro cytotoxicity against SKOV-3 cells in the presence of 1 mM NADH co-factor and 1 ug/mL Escherichia coli B nitroreductase (NTR); format: functional, cell-based; conditions: Homo sapiens
[6] = Oxygen dependence of cytotoxicity was assessed by clonogenic assay using stirred suspension cultures of AA8 cells after 1 hr under anoxic conditions; format: functional, Cricetulus griseus, CHO-AA8
[7] = Oxygen dependence of cytotoxicity was assessed by clonogenic assay using stirred suspension cultures of ERCC-1 mutant UV4 cells after 1 hr under anoxic conditions; format: functional, Cricetulus griseus
[8] = Oxygen dependence of cytotoxicity was assessed by clonogenic assay using stirred suspension cultures of AA8 cells after 4 hr under anoxic conditions; format: functional, Cricetulus griseus, CHO-AA8
WiDr [9] = experiment: (§1) Ratio of cytotoxicities against WiDr cell line to NTR transfectant; format: functional, Homo sapiens
[10] = Oxygen dependence of cytotoxicity was assessed by clonogenic assay using stirred suspension cultures of ERCC-1 mutant UV4 cells after 4 hr under anoxic conditions; format: functional, Cricetulus griseus
[11] = Ratio of oxygen dependence of cytotoxicities of UV4 cells in aerobic condition to anoxic condition; format: functional
[12] = Oxygen dependence of cytotoxicity was assessed by clonogenic assay using stirred suspension cultures of ERCC-1 mutant UV4 cells after 4 hr under aerobic conditions; format: functional, Cricetulus griseus
[13] = Oxygen dependence of cytotoxicity was assessed by clonogenic assay using stirred suspension cultures of AA8 cells after 1 hr under aerobic conditions; format: functional, Cricetulus griseus, CHO-AA8
T78-1 = experiment: In vitro cytotoxicity against Chinese hamster V79-derived cell line T78-1 transfected with Escherichia coli B nitroreductase (NTR); format: functional, cell-based; conditions: Cricetulus griseus
WiDr [14] = experiment: In vitro cytotoxicity against man colon carcinoma line WiDr cell lines transfected with Escherichia coli B nitroreductase (NTR); format: functional, cell-based; conditions: Homo sapiens
[15] = Oxygen dependence of cytotoxicity was assessed by clonogenic assay using stirred suspension cultures of ERCC-1 mutant UV4 cells after 1 hr under aerobic conditions; format: functional, Cricetulus griseus
[16] = Ratio of cytotoxicities against SKOV-3 cell line to NTR transfectant; format: functional, SK-OV-3
[17] = Ratio of cytotoxicity against SKOV-3 cells in the absence of co-factor to the cytotoxicity in the presence of co-factor and NTR; format: functional, SK-OV-3
[18] = Oxygen dependence of cytotoxicity was assessed by clonogenic assay using stirred suspension cultures of ERCC-1 mutant UV4 cells after 3h under aerobic conditions; format: functional, Cricetulus griseus
[19] = Ratio of oxygen dependence of cytotoxicities of AA8 cells in aerobic condition to anoxic condition; format: functional, Cricetulus griseus, CHO-AA8
[20] = Oxygen dependence of cytotoxicity was assessed by clonogenic assay using stirred suspension cultures of AA8 cells after 3h under aerobic conditions; format: functional, Cricetulus griseus, CHO-AA8
[21] = Oxygen dependence of cytotoxicity was assessed by clonogenic assay using stirred suspension cultures of AA8 cells after 3h under anoxic conditions; format: functional, Cricetulus griseus, CHO-AA8
[22] = Oxygen dependence of cytotoxicity was assessed by clonogenic assay using stirred suspension cultures of ERCC-1 mutant UV4 cells after 3h under anoxic conditions; format: functional, Cricetulus griseus
[23] = Oxygen dependence of cytotoxicity was assessed by clonogenic assay using stirred suspension cultures of ERCC-1 mutant UV4 cells after 8 hr under anoxic conditions; format: functional, Cricetulus griseus
[24] = as §1; format: functional
[25] = Oxygen dependence of cytotoxicity was assessed by clonogenic assay using stirred suspension cultures of ERCC-1 mutant UV4 cells after 8 hr under aerobic conditions; format: functional, Cricetulus griseus
SK-OV-3 [26] = experiment: In vitro for cytotoxicity against SKOV-3 cells in the presence of 1 mM NADH co-factor; format: functional, cell-based; conditions: Homo sapiens
SK-OV-3 [27] = experiment: In vitro for cytotoxicity against SKOV-3 cells in the presence of 1 mM NADH co-factor and 1 ug/mL Escherichia coli B nitroreductase (NTR); format: functional, cell-based; conditions: Homo sapiens

Structure (SMILES)	Selectivity [1]	IC50 (SK-OV-3 [2])	IC50 (SK-OV-3 [4])	IC50 (SK-OV-3 [5])	C10 air/C10 N2 [11]	IC50 (T78-1)	IC50 (WiDr [14])	Selectivity [16]	Selectivity [17]	C10 air [18]	C10 air [20]	C10 N2 [21]	C10 N2 [22]	Selectivity [24]	other results
O=C(OCc1ccc([N+](=O)[O-])cc1)N1c2ccc(OCCO)cc2[C@@]23O[C@]24CCC[C@H]3C#C/C=C\C#C[C@H]14	111	500 nM	500 nM	39 nM	1.5 and 1.1	2400 nM	1810 nM	21.3	13						C10 air [3]: 22 µM; C10 N2 [6]: >100 µM; C10 N2 [7]: 60 µM; C10 N2 [8]: >100 µM; Selectivity (WiDr [9]): 135; C10 N2 [10]: 12 µM; C10 air [12]: 11 µM; C10 air [13]: 75 µM; C10 air [15]: 40 µM
O=C(OCc1ccccc1[N+](=O)[O-])N1c2ccccc2[C@@]23O[C@]24CCC[C@H]3C#C/C=C\C#C[C@H]14	1.9	> 20000 nM	> 20000 nM	> 20000 nM	0.4	8900 nM	> 20000 nM			140 µM	120 µM	200 µM	53 µM		C10 air/C10 N2 [19]: >1.7
O=C(OCc1ccc([N+](=O)[O-])cc1)N1c2ccccc2[C@@]23O[C@]24CCC[C@H]3C#C/C=C\C#C[C@H]14	54	20400 nM	> 20000 nM	260 nM		11100 nM	8400 nM	264	95.9	>100 µM	>100 µM	>100 µM	>100 µM	97	C10 N2 [23]: 70 µM; ratio [11]: 1; C10 air [25]: 70 µM
NC(=O)c1cc(N2CC2)c([N+](=O)[O-])cc1[N+](=O)[O-] [TRETAZICAR]	1630						565000 nM	357	183					51	IC50 (SK-OV-3 [26]): 760 nM; IC50 (SK-OV-3 [27]): 1010 nM

— ChEMBL document CHEMBL1132517, “Nitrobenzyl carbamate prodrugs of enediynes for nitroreductase gene-directed enzyme prodrug therapy (GDEPT)” (Bioorg Med Chem Lett, 1999)
